Patent publication US12478616B2, “PI3K inhibitors and uses thereof” (Sloan-Kettering Institute for Cancer Research, priority 2018, dated 2025)
Where two headings read alike, the source gives them in different places. Marks after values point to notes of the source that are not given here.

What was measured:
[1] = target: PI3Kα (Homo sapiens (Human), UniProt P42336); experiment: PI3Kα kinase (biochemical) assay
[2] = system: ERK phosphorylation; conditions: cited from earlier work
[3] = system: B16F10 melanoma lung metastases; conditions: FiDOX 1, 5 and 30 mg/kg; free doxorubicin 6 mg/kg; cited from earlier work
[4] = Mouse pharmacokinetics, cassette dosed free drug; assay type: in vivo; conditions: for MRTiv / BA / MRTpo / AUC / concentration at 5 min / clearance / Vd / Cmax / Tmax: cassette; for concentration at 5 min: read-out: C5min; for clearance: read-out: Cltotal (converted); for Vd: read-out: VDss
Description: (§1) Mouse PK data for Compound (14) (cassette dosing) for free drug (i.e., not nanoformulated) is tabulated in Table 2 using amorphous material. […] The corresponding rat PK data is tabulated in Table 3, where the results are consistent with mouse PK data.

[5] = system: PI3K; experiment: PI3K cellular assays; assay type: cell-based; design: key: Inactive (−); Low (+); Intermediate (++); High (+++); conditions: for PI3K cellular activity: Table 1
[6] = Fucoidan nanoparticle formulation, drug load and particle size; assay type: physicochemical; conditions: Table 1
Protocol: FIG. 13. Generation of Compound (14) Nanoparticles [Fi(Compound (14))]. An aliquot of 0.1 mL of Compound (14) dissolved in dimethyl sulfoxide (25 mg/mL) was added drop-wise ([…]) to a 0.6 mL aqueous polysaccharide solution (15 mg/mL) containing IR820 (2.5 mg/mL) and 0.05 mM sodium bicarbonate. An aliquot of 0.1 mL of 8-arm PEG-amine dissolved in water (Creative Peg Works, 20 kD, 5 mg/mL) was added drop-wise to the mixture followed by centrifugation (20,000 g, 30 min). The nanoparticle pellet was re-suspended in 1 mL of sterile PBS. The suspension was sonicated for 10 s with a probe tip ultrasonicator at 40% intensity (Sonics inc). The nanoparticles were lyophilized in a 5% saline/sucrose solution.
Nanoformulated Compound (14) [Fi(Compound (14))] was typically prepared as illustrated in FIG. 13 by adding a DMSO solution dropwise to an aqueous polysaccharide solution containing the near-IR dye IR820. This was followed by the addition of an aqueous solution containing 20 kD, 8-arm PEG-amine, centrifugation and ultra-sonication yielding nanoparticles (<200 nm) with good batch consistency (FIG. 14). […]
Importantly, each of these 3 new derivatives shown in Table 8 were successfully encapsulated in fucoidan polysaccharide nanoparticles. Following nanoformulation, the drug loading in the nanoparticle for each analog was determined.

[7] = Rat pharmacokinetics, cassette dosed free Compound (14); assay type: in vivo
Description: as §1

[8] = system: S6 ribosomal protein (S6) phosphorylation; conditions: single administration; free BYL719 oral, Fi(BYL719) 25 mg/kg; up to 24 hours; cited from earlier work
[9] = system: Cal-33 xenografts; conditions: Fi(BYL719) 25 mg/kg twice a week; free BYL719 7 mg/kg/day (50 mg/kg/week); cited from earlier work
[10] = cited from earlier work
[11] = 60 consecutive days; BYL719 50 mg/kg/day, Fi(BYL719) 50 mg/kg/week; cited from earlier work
[12] = system: H22 patient-derived xenografts; conditions: Fi(BYL719) 25 mg/kg twice a week; free BYL719 7 mg/kg/day (50 mg/kg/week); cited from earlier work
[13] = rat, BYL719 dose 3.4 mg/kg IV, cited from earlier work
[14] = healthy mice, single dose, BYL719 25 or 50 mg/kg, Fi(BYL719) 25 mg/kg, cited from earlier work
[15] = Table 5, pyrone inhibitors, read-out: PI3Kα (IC50)
[16] = Table 4, pyridine-modified inhibitors, read-out: PI3Kα (IC50)
[17] = Table 6, proline-modified inhibitors, read-out: PI3Kα (IC50)
[18] = IV 0.1 mg/kg, 1 mL/kg (10-in-One)
[19] = in vivo, IV 0.1 mg/kg, 1 mL/kg (10-in-One), read-out: AUCiv
[20] = in vivo, IV 0.1 mg/kg, 1 mL/kg (10-in-One)
[21] = in vivo, PO 1 mg/kg, 5 mL/kg (5-in-One)
[22] = in vivo, PO 1 mg/kg, 5 mL/kg (5-in-One), read-out: AUCpo

Sequence of PI3Kα (P42336 whole entry): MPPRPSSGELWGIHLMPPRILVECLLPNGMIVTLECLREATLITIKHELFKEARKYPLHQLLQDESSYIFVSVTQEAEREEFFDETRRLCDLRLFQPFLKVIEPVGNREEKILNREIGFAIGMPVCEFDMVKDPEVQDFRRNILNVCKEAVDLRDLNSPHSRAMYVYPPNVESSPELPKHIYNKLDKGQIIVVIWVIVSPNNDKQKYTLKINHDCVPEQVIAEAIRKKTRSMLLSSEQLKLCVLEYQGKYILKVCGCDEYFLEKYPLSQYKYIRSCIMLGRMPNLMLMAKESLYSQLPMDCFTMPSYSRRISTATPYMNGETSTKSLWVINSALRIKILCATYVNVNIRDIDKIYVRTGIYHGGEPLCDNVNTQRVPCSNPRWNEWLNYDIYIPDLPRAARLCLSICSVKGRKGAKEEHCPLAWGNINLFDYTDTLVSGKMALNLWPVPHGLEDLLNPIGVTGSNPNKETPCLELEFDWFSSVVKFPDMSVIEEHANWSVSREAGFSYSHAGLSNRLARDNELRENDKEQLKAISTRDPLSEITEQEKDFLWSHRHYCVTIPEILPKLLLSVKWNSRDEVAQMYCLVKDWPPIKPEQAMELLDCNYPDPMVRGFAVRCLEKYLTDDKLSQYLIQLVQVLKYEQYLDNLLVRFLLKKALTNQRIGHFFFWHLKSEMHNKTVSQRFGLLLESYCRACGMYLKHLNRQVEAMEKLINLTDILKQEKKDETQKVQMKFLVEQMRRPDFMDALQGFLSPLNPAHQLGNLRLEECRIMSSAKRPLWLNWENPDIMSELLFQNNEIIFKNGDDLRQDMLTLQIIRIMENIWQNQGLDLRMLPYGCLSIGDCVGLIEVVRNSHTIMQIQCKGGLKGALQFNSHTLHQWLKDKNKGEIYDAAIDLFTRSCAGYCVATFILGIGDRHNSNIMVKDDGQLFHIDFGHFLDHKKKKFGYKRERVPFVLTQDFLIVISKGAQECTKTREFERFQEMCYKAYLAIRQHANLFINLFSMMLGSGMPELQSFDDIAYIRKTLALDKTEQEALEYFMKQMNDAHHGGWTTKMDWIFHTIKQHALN
Sequence of PI3Kα (P27986 whole entry partner): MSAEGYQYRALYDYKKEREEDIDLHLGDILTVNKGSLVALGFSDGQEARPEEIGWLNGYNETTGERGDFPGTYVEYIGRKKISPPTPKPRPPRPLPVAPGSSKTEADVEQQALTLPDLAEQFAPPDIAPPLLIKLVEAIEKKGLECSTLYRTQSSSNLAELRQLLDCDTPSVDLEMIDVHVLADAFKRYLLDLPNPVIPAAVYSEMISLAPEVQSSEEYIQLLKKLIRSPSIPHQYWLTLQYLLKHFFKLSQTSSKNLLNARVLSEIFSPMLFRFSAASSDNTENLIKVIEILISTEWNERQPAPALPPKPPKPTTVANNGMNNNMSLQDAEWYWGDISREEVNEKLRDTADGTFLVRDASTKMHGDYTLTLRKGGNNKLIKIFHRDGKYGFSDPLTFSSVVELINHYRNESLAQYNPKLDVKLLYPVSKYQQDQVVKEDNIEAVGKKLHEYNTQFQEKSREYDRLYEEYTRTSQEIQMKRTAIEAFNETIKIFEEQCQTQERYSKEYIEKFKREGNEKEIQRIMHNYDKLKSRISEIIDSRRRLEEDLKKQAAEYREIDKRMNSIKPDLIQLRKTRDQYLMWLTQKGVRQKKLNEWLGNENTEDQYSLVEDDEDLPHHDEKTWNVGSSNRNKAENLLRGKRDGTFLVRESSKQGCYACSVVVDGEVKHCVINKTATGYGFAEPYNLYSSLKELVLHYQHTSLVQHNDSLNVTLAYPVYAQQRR

CCOC(=O)[C@@H]1C[C@@H](C(N)=O)N(C(=O)Nc2nc(C)c(-c3cc(C(C)(C)C(F)(F)F)oc(=O)c3)s2)C1 [Compound (11)]
PI3Kα inhibition in biochemical assay (in words) [1]: active | IC50 [1, 15]: < 100 nM

CCOC(=O)CC(C)(C)c1cc(-c2sc(NC(=O)N3CCC[C@H]3C(N)=O)nc2C)ccn1 [Compound (2)]
IC50 [1, 16]: < 100 nM

Cn1cnc2c(F)c(Nc3ccc(Br)cc3F)c(C(=O)NOCCO)cc21 [MEK162]
pERK inhibition in the skin ([2]; 4 and 24 hours): phosphorylation returned in both tissues after 24 hours | pERK inhibition in the tumor ([2]; after 24 hours): phosphorylation returned in both tissues after 24 hours

COc1cccc2c1C(=O)c1c(O)c3c(c(O)c1C2=O)C[C@@](O)(C(=O)CO)C[C@@H]3O[C@H]1C[C@H](N)[C@H](O)[C@H](C)O1 [doxorubicin]
tumor burden and survival after a single injection [3]: did not have a significant effect

Cc1nc(NC(=O)N2CCC[C@H]2C(N)=O)sc1-c1ccnc(C(C)(C)C(=O)OCc2oc(=O)oc2C)c1 [Compound (4)]
IC50 [1, 16]: < 100 nM

Cc1nc(NC(=O)N2CCC[C@H]2C(N)=O)sc1-c1ccnc(C(C)(C)C(=O)OC2CCOC2=O)c1 (some centres unmarked) [Compound (1)]
IC50 [1, 16]: < 100 nM

Cc1nc(NC(=O)N2CCC[C@H]2C(N)=O)sc1-c1cc(C(C)C)oc(=O)c1 [Compound (13)]
IC50 [1, 15]: < 100 nM

CCOC(=O)[C@@H]1CCN(C(=O)Nc2nc(C)c(-c3cc(C(C)(C)C(F)(F)F)oc(=O)c3)s2)[C@@H]1C(N)=O [Compound (10)]
PI3Kα inhibition in biochemical assay (in words) [1]: active | IC50 [1, 15]: < 100 nM

CCOC(=O)[C@@H]1CCN(C(=O)Nc2nc(C)c(-c3ccnc(C(C)(C)C(F)(F)F)c3)s2)[C@@H]1C(N)=O [Compound (20)]
PI3Kα inhibition in biochemical assay (in words) [1]: good intrinsic PI3Kα potency | IC50 [1, 17]: < 100 nM

Cc1nc(NC(=O)N2CCC[C@H]2C(N)=O)sc1-c1ccnc(C(C)(C)C(=O)OC(C)OC(=O)OC2CCCCC2)c1 (some centres unmarked) [Compound (3)]
IC50 [1, 16]: < 100 nM

COC(=O)c1cc(-c2sc(NC(=O)N3CCC[C@H]3C(N)=O)nc2C)ccn1 [Compound (9)]
IC50 [1, 16]: < 100 nM

Cc1nc(NC(=O)N2CCC[C@H]2C(N)=O)sc1-c1cc(C(C)(C)C(F)(F)F)oc(=O)c1 [Compound (14)]
mean residence time (in words) ([4]; cassette dosing, free drug): short mean residence time | oral bioavailability (in words) ([4]; cassette dosing, free drug): modest oral bioavailability | total clearance (in words) ([4]; cassette dosing, free drug): high total clearance | MRTiv [4, 18]: 18.6 min | BA ([4]; IV 0.1 mg/kg, PO 1 mg/kg): 13.5% | MRTpo ([4]; PO 1 mg/kg, 5 mL/kg (5-in-One)): 1.07 h | AUC [4, 19]: 17.8 ng·h/mL | concentration at 5 min [4, 20]: 66.4 ng/mL | clearance [4, 20]: 96.5 mL/min/kg | Vd [4, 20]: 1.78 L/kg | Cmax [4, 21]: 17.1 ng/mL | AUC [4, 22]: 24 ng·h/mL | Tmax ([4]; in vivo, PO 1 mg/kg, 5 mL/kg (5-in-One), read-out: Tmax): 25.2 min | efficacy in PI3K cellular assays [5]: (+++) | PI3K cellular activity [5]: (+++)*** | Nanoparticle drug load, % [6]: 22% | MRTiv [7, 18]: 25.2 min | BA ([7]; IV 0.1 mg/kg, PO 1 mg/kg): 5.9% | MRTpo ([7]; PO 1 mg/kg, 5 mL/kg (5-in-One)): 2.1 h | AUC [7, 19]: 45.1 ng·h/mL | concentration at 5 min ([7]; in vivo, IV 0.1 mg/kg, 1 mL/kg (10-in-One), read-out: C5min): 114 ng/mL | clearance ([7]; in vivo, IV 0.1 mg/kg, 1 mL/kg (10-in-One), read-out: Cltotal (converted)): 37 mL/min/kg | Vd ([7]; in vivo, IV 0.1 mg/kg, 1 mL/kg (10-in-One), read-out: VDss): 0.932 L/kg | Cmax [7, 21]: 11.8 ng/mL | Tmax [7, 21]: 30 min | AUC [7, 22]: 26.9 ng·h/mL | PI3Kα inhibition in biochemical assay (in words) [1]: potent inhibitor | IC50 ([1]; Table 1, read-out: PI3Kα (IC50)): < 100 nM | IC50 [1, 15]: < 100 nM | IC50 ([1]; refers to Table 5, read-out: PI3Kα inhibitor in biochemical assays): < 100 nM

COC(=O)C(C)(C)c1cc(-c2sc(NC(=O)N3CCC[C@H]3C(N)=O)nc2C)ccn1 [Compound (8)]
IC50 [1, 16]: < 100 nM

Cc1cc(-c2sc(NC(=O)N3CCC[C@H]3C(N)=O)nc2C)cc(=O)o1 [Compound (15)]
IC50 [1, 15]: < 500 nM

CCOC(=O)C1CC(C(N)=O)N(C(=O)Nc2nc(C)c(-c3ccnc(C(C)(C)C(F)(F)F)c3)s2)C1 (centres unmarked) [Compound (21)]
PI3Kα inhibition in biochemical assay (in words) [1]: good intrinsic PI3Kα potency | IC50 [1, 17]: < 100 nM

CCOC(=O)[C@H]1C[C@@H](C(N)=O)N(C(=O)Nc2nc(C)c(-c3cc(C(C)(C)C(F)(F)F)oc(=O)c3)s2)C1 [Compound (12)]
PI3Kα inhibition in biochemical assay (in words) [1]: active | IC50 [1, 15]: < 100 nM

CCOC(=O)C1(c2cc(-c3sc(NC(=O)N4CCC[C@H]4C(N)=O)nc3C)ccn2)CC1 [Compound (5)]
IC50 [1, 16]: < 100 nM

CCOC(=O)C(C)c1cc(-c2sc(NC(=O)N3CCC[C@H]3C(N)=O)nc2C)ccn1 (mixture of isomers) [Compound (6)]
IC50 [1, 16]: < 100 nM

Cc1nc(NC(=O)N2CCC[C@H]2C(N)=O)sc1-c1ccnc(C(C)(C)C(F)(F)F)c1 [BYL719, alpelisib, reference compound]
MRTiv [4, 18]: 67.2 min | BA ([4]; IV 0.1 mg/kg, PO 1 mg/kg): 71.2% | MRTpo ([4]; PO 1 mg/kg, 5 mL/kg (5-in-One)): 2.12 h | Tmax ([4]; PO 1 mg/kg, 5 mL/kg (5-in-One)): 60 min | AUC [4, 19]: 73.9 ng·h/mL | concentration at 5 min [4, 20]: 56.4 ng/mL | clearance [4, 20]: 22.9 mL/min/kg | Vd [4, 20]: 1.54 L/kg | Cmax [4, 21]: 184 ng/mL | AUC [4, 22]: 526 ng·h/mL | inhibition of S6 phosphorylation in tumor [8]: strong albeit transient inhibition | PI3K cellular activity [5]: (+++)*** | Nanoparticle drug load, % [6]: 22% | antitumor activity in Cal-33 [9]: no appreciable antitumor activity | observed half-life in humans [10]: 11.5 h | serum glucose and insulin levels after chronic treatment [11]: Significantly elevated | antitumor activity in H22 [12]: transient delay of tumor growth followed by acquired insensitivity to the treatment | BA ([13]; 15 mg/kg PO): 58% | Cltotal [13]: 600 mL/h/kg | MRTiv [13]: 2.9 h | VDss [13]: 1900 mL/kg | serum glucose levels [14]: spike | serum insulin levels ([14]; within 24 hours): spike

Cc1nc(NC(=O)N2CCC[C@H]2C(N)=O)sc1-c1ccnc(C(C)(C)C(=O)O)c1 [Compound (7)]
IC50 [1, 16]: < 100 nM
